Measured values published in US20250186420A1, “POLYMETHINIUM SALTS AS INHIBITORS OF DIHYDROOROTATE DEHYDROGENASE” (UNIVERZITA KARLOVA, priority 2022, published 2025).

How the values were obtained:
Format in all cases: cell-based
PC-3 [1] = assay: xCELLigence real-time impedance cell migration; conditions: for Normalized cell index (cell migration): cell index normalized to 1.0 at addition of test agent, concentration based on IC50 for the cell line
Procedure: (§1) The xCELLigence system based on real-time cell impedance analysis (RTCA) was used to determine invasiveness and migration rates. The xCELLigence system consists of four main components: an RTCA DP station, an RTCA computer with integrated software, and CIM 16 disposable plates. First, the optimal cell seeding concentration for the proliferation and invasiveness assay was determined. After seeding the total number of cells in 200 μl medium into each well in E-plate 16, cell adherence and proliferation were monitored every 15 minutes. For the invasiveness assay, the optimal response was found in a well containing 20,000 cells. After coating the upper wells with matrigel and adding FBS as a chemoattractant, cells were seeded in 100 μl medium in each well of a CIM-plate 16. Adherence and growth of cells through the matrigel was monitored every 15 minutes. The duration of all experiments was 150 hours. The relative invasiveness rate was defined as the cellular index for matrigel-coated wells (cells must spread/pass through the matrigel to generate a signal) at a given time point. The impedance of electron flow due to adherent cells is given by a unitless parameter called the cell index (CI), where CI=(impedance at time point n-impedance in the absence of cells)/nominal impedance value). In order to compare individual cell lines/treatment, these cell indices were normalized to 1.0 at the time the test agents were added. Concentrations of compounds were chosen based on the IC50 inhibitory concentration for each cell line.

U-2 OS [2] = assay: xCELLigence real-time impedance cell migration; conditions: for Normalized cell index (cell migration): cell index normalized to 1.0 at addition of test agent, concentration based on IC50 for the cell line
Procedure: as §1

PNTA [3] = assay: xCELLigence real-time impedance cell migration; conditions: for Normalized cell index (cell migration): cell index normalized to 1.0 at addition of test agent, concentration based on IC50 for the cell line
Procedure: as §1

PC-3 [4] = assay: xCELLigence real-time impedance cell invasiveness (matrigel); conditions: for Normalized cell index (cell invasiveness): matrigel-coated wells, normalized to 1.0 at addition of test agent, concentration based on IC50 for the cell line
Procedure: as §1

U-2 OS [5] = assay: as above; conditions: for Normalized cell index (cell invasiveness): matrigel-coated wells, normalized to 1.0 at addition of test agent, concentration based on IC50 for the cell line
Procedure: as §1

PNTA [6] = assay: as above; conditions: for Normalized cell index (cell invasiveness): matrigel-coated wells, normalized to 1.0 at addition of test agent, concentration based on IC50 for the cell line
Procedure: as §1

[7] = test system: DHODH-dependent respiration in PNT1A cell line; assay: Inhibition of DHODH-dependent respiration (Oxygraph-2k); conditions: model of normal prostate tissue, test substance 1 to 4 nM, permeabilized cells
Procedure: (§2) DHODH-dependent respiration was performed as follows. Cells were trypsinized, washed with PBS, resuspended in an amount of 2×10^6 cells per ml Mir05 medium (0.5 mM EGTA, 3 mM MgCl2, 60 mM K-lactobionate, 20 mM taurine, 10 mM KH2PO4, 110 mM sucrose, 1 g/L bovine serum albumin, 20 mM Hepes, pH 7.1 at 30° C.) and transferred to the chamber of the Oxygraph-2k instrument (Oroboros). Respiration was measured at 37° C. Cells were permeabilized with 5 μg of digitonin per 10^6 cells, and complex I inhibitor (0.3 μM rotenone) and test substance were added at concentrations from 1 to 4 nM before adding the substrate. DHODH-mediated respiration was assessed by subtracting the residual rate of respiration remaining after the addition of 30 μM leflunomide from the rate of respiration in the presence of 1 mM dihydroorotate (DHO), 3 mM ADP, and 10 μM cytochrome c.

[8] = test system: DHODH-dependent respiration in U-2 OS; assay: as above; conditions: U-2 OS tumor line; test substance 1 to 4 nM; permeabilized cells
Procedure: as §2

[9] = test system: DHODH-dependent respiration in PC-3; assay: as above; conditions: PC-3 tumor line; test substance 1 to 4 nM; permeabilized cells
Procedure: as §2

| SMILES | Control-substance (difference of normalized cell index, cell migration) (PC-3 [1]) | Normalized cell index (cell migration) (PC-3 [1]) | Control-substance (difference of normalized cell index, cell migration) (U-2 OS [2]) | Normalized cell index (cell migration) (U-2 OS [2]) | Control-substance (difference of normalized cell index, cell migration) (PNTA [3]) | Normalized cell index (cell migration) (PNTA [3]) | Control-substance (difference of normalized cell index, cell invasiveness) (PC-3 [4]) | Normalized cell index (cell invasiveness) (PC-3 [4]) | Control-substance (difference of normalized cell index, cell invasiveness) (U-2 OS [5]) | Normalized cell index (cell invasiveness) (U-2 OS [5]) | Control-substance (difference of normalized cell index, cell invasiveness) (PNTA [6]) | Normalized cell index (cell invasiveness) (PNTA [6]) | DHODH-dependent respiration [7] | DHODH-dependent respiration [8] | DHODH-dependent respiration [9] |
| --- | --- | --- | --- | --- | --- | --- | --- | --- | --- | --- | --- | --- | --- | --- | --- |
| CCCN1/C(=C/C=C(/C=C/C2=[N+](CCC)c3ccccc3C2(C)C)c2ccncc2)C(C)(C)c2ccccc21.[I-] [Substance 2] | 19.3 | 19.5 | 20.4 | 3.9 | 11.6 | 7.0 | 17.4 | 5.4 | 23.7 | 1.9 | 16.5 | 3.2 | unaffected | caused a decrease in DHODH-dependent respiration | caused a decrease in DHODH-dependent respiration |
| CCCN1/C(=C/C=C(/C=C/c2sc3ccccc3[n+]2CCC)c2ccccc2)Sc2ccccc21.[I-] [Substance 1] | 30.0 | 8.8 | 20.8 | 3.5 | 15.2 | 3.4 | 21.4 | 1.4 | 24.3 | 1.3 | 16.9 | 2.8 | unaffected | caused a decrease in DHODH-dependent respiration | caused a decrease in DHODH-dependent respiration |
